Paper PMC10669542, “Ascorbate Peroxidase 2 (APX2) of Chlamydomonas Binds Copper and Modulates the Copper Insertion into Plastocyanin” (Antioxidants, 2023)

Target: T1, APX2 (recombinant His-tagged APX2) (Chlamydomonas reinhardtii, UniProt A0A2K3DPX4)
T1 construct: gene CHLRE_06g285150v5
T1 sequence (A0A2K3DPX4 97-337): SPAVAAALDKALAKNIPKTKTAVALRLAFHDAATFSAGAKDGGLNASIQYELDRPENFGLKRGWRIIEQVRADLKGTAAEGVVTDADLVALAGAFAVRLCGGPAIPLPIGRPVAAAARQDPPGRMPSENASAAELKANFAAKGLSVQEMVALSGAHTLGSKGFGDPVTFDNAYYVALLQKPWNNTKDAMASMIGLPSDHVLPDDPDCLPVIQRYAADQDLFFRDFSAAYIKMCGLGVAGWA
Assay: peroxidase assay, tetraguaiacol formation at […] nm
Format: biochemical
Conditions: electron donor, 10 mM; H2O2 varied 0-1 mM; 0.2 uM enzyme; 20 mM potassium phosphate pH 6.0

With COc1ccccc1O [guaiacol] the “peroxidase assay, tetraguaiacol formation at 470 nm” value was “The enzyme demonstrated activity in the presence of guaiacol, a well-known electron donor for peroxidases”.
